The values below come from US8722714B2, “Oxazolidine derivatives as NMDA antagonists” (The Honk Kong University of Science and Technology, priority 2008, dated 2014).

SMILES strings stand for the structures.

Test [1] relates to AKT. The test is described as follows: Western blot detection of AKT phosphorylation in rat cortical neurons. In kind it is cell-based. Particulars: 500 μM; rat cortical neurons 11 DIV. Here is the method:
Embryonic day 18 Sprague Dawley rat pups were decapitated, their brains removed, and the cortices were isolated. Tissues were triturated and isolated neurons were plated onto 60 mm plate and cultured with Neurobasal medium supplemented with 2% B27 (Invitrogen). Experiments were performed after 10-12 days in vitro (DIV). Cultured cells were stimulated with a test compound or vehicle control (DMSO) for different time intervals and then lysed with RIPA buffer including protease inhibitors. Cell lysates were stored at −80° C. before use. Before being loaded, the lysates were heated to 95° C. for 10 min, vortexed and centrifuged for 7 min at 15,000×g. Supernatants were electrophoresed on 10% SDS-polyacrylamide gel and transblotted to nitrocellulose membrane. The membranes were washed with 5% (w/v) powdered milk dissolved in PBS with 0.1% Triton X-100, followed by incubation at 4° C. overnight with rabbit polyclonal against phospho-ERK or phosphor-AKT (1:1000, Cell Signaling Technology). Next, the membranes were washed and incubated with horseradish peroxidase (HRP)-conjugated secondary antibodies. The signal was visualized using ECL Western Blotting Kit. Blots were stripped and probed for total ERK or AKT expression. […]
Western blot analysis was performed on the total cell lysates. Antibodies against phospho-ERK1/2 and phospho-AKT were used and detected with HRP conjugated secondary antibodies. […]
A general note: Immunoblotting shows a protein as a band on a membrane.

Test [2] relates to scopolamine-induced memory deficit mice. The test is described as follows: Morris Water Maze in scopolamine-induced memory deficit mice. Format: in vivo. Particulars: scopolamine 4 mg/kg i.p. Here is the method: 6-8 week old outbred male I.C.R. mice, weighing 25-35g were housed two per cage in a climatically controlled animal room (23-25° C.) under 12 hours light/dark cycling. The animals were allowed access to water and food ad lib. The mice used for the experiment were brought to particular laboratory conditions for two days. All the experiments were conducted between 14:00 and 18:00. Scopolamine hydrobromide (Sigma, USA) was dissolved in saline in 4 mg/kg and administered in a volume of 10 ml/kg body weight. The experimental mice were randomly assigned into 3 groups, each consisting of 12 mice with similar mean body weights and age. Test sample was dissolved in physiological saline before the experiments each day. Scopolamine was administered through intraperitoneal injection (i.p.) at 30 minutes before the swimming tasks to induce memory deficit. Oral administrations (p.o.) of the test compound, or saline (0.9%) was started at the first day of the task and administrated according to a volume of 10 ml/kg body weight. Oral drug administrations were 45 minutes before the swimming tasks and conducted daily for 4 consecutive days until the end of the task.
Each mouse was subjected to 4 trials per day for 4 consecutive days. […] The student t-test with repeated measures was used to analyze latency values, and calculated as the mean latency periods for each mouse. Data are expressed as means±S.E.M, *=P<0.05 and **=P<0.005 versus scopolamine.
Scopolamine (SCOP; 4 mg/kg) was first administered intra-peritoneally to mice to impair their memories. […] On each day, the time taken for the mice to detect the hidden platform in the water maze was measured, in seconds. Measurements were calculated as the mean latency periods for each mouse; n=24. Data are expressed as mean±s.e.m. and compared to Saline/SCOP group. […]
In FIG. 13, mice were first orally administered LC-24 (30 mg/kg), scopolamine (4 mg/kg) was i.p. administered to mice 15 min to impair their memories. […] On each day, the time taken for the mice to detect the hidden platform in the water maze was measured, in seconds. […]

Test [3] concerns the target T1, Adenosine A2A (Homo sapiens, UniProt P29274).
T1 construct: CEREP, France (contract assay, High-throughput Profile)
The test is described as follows: Ligand binding assay (High-throughput Profile, CEREP). On the procedure:
(§1) To determine the pharmacological profile and potential targets of LC-02, 80 binding assays were performed (High-throughput Profile, CEREP, France). LC-02 was evaluated at a single concentration in these specific binding assays. […] A cutoff of 25% is considered as a moderate effect.
(§2) Compound LC-02 (10 μM) was subjected to ligand binding assays with human A3 and rat kappa receptor overexpressing cells. Results are expressed as a percent of control specific agonist response [100-(measured specific response/control specific agonist response)×100] obtained in the presence of LC-02.

The target of test [4] is T2, Adenosine A1 (Homo sapiens, UniProt P30542).
T2 construct: CEREP, France (contract assay, High-throughput Profile)
T2 sequence (P30542 1-326): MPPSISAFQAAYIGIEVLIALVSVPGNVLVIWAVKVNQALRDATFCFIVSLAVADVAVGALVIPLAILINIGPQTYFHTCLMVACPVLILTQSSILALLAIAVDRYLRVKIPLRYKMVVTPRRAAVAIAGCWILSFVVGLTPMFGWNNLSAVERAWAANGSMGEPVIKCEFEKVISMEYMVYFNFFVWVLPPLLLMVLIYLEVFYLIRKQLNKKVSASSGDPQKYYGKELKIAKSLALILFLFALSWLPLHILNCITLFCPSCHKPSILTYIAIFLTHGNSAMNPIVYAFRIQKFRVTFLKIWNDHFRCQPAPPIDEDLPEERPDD
The test is described as above. Here is the method:
as §1, §2

The target in test [5] is T3, Opioid (mu) (Homo sapiens, UniProt P35372).
T3 construct: CEREP, France (contract assay, High-throughput Profile)
The test is described as above. Here is the method:
as §1, §2

Test [6] concerns the target T4, adenosine A3 receptor (Homo sapiens, UniProt P0DMS8).
T4 sequence (P0DMS8 1-318): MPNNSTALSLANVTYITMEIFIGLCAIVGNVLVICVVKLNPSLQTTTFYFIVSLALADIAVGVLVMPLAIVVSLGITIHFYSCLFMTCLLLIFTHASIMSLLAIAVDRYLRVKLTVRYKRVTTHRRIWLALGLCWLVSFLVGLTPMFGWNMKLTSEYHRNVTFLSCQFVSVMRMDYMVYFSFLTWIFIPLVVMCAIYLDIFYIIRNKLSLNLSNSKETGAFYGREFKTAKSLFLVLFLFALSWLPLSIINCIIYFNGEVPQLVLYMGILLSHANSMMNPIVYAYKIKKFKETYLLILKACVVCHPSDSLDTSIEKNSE
Described as above. Conditions: [125I]AB-MECA, human A3 overexpressing cells. Here is the method: as §1, §2

Test [7] concerns the target T5, Opioid (delta) (Homo sapiens, UniProt P41143).
T5 construct: CEREP, France (contract assay, High-throughput Profile)
Described as above. Here is the method:
as §1, §2

T1 sequence (P29274 whole entry): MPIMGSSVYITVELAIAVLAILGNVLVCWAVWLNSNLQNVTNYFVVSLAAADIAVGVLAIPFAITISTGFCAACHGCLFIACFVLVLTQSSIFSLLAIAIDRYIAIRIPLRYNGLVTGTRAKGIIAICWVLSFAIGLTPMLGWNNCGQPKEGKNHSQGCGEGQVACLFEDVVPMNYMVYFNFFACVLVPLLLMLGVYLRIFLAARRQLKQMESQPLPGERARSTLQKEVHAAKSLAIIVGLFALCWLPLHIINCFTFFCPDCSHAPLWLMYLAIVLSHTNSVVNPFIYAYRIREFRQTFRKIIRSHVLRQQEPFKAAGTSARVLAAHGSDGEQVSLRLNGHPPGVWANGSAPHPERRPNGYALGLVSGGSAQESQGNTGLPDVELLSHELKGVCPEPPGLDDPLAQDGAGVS
T3 sequence (P35372 whole entry): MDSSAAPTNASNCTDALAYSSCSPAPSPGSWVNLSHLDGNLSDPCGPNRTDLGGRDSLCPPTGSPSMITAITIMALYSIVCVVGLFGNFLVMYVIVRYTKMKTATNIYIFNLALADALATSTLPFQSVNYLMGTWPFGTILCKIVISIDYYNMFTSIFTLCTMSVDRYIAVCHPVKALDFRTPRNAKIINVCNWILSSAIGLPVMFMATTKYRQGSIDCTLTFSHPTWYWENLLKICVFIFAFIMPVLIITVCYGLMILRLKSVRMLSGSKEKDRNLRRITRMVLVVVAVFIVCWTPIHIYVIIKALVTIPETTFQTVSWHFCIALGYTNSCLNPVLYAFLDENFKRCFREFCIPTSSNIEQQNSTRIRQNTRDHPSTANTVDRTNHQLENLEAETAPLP
T5 sequence (P41143 whole entry): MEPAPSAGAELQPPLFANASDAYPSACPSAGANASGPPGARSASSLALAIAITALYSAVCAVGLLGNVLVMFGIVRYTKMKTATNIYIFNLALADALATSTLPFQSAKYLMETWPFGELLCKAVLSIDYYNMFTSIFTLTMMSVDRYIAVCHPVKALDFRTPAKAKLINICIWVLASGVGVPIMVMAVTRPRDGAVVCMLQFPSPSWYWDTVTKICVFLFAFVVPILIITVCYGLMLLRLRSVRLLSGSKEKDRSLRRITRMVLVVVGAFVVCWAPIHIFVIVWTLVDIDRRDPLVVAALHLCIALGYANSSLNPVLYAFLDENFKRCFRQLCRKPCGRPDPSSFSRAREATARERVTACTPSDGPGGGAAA

The term inhibition denotes the drop in the measured response relative to a control, in per cent. For the compound `CC[C@H]1N[C@@H](CC(C)C)C(CC)(CC)O1` [LC-02], in test [1], the “phosphorylation of AKT” value is given as “phosphorylated within 5-15 min”. Moreover, the escape latency result in test [2] (30 or 100 mg/kg oral) is “decreases escape latencies”. Further, the inhibition at 10 µM in test [3] was 6%; in test [4] it was 5%; in test [5], 14%; in test [6], 30%; in test [7], 18%.

Turning to `CCCC1(CCC)O[C@@H](CC)N[C@H]1CC(C)C` [LC-06], the escape latency result in test [2] (100 mg/kg oral, 4 days) is reported as “reversed the increased escape latency induced by scopolamine”.

With `CC[C@H]1N[C@@H](Cc2ccccc2)C(CC)(CC)O1` [LC-24], in test [2] (30 mg/kg oral, 4 days), the escape latency result is reported as “reduced the increased escape latency induced by scopolamine”.
